As usually defined, the Solubility is the dissolved amount per volume that the medium holds.

One series in a line: physchem. The conditions noted are these: thermodynamic from solid.
Series [1] can be described thus: Solubility of solid forms in water (visual dissolution). The note with it: deionized water added drop-wise with agitation until visual dissolution of the solid; hydrochloride.

Structures can show the parent of a compound that is named as a salt.

With `C[C@@H]1CCN(C(=O)CC#N)C[C@@H]1N(C)c1ncnc2[nH]ccc12.O=C(O)CC(O)(CC(=O)O)C(=O)O` [Tofacitinib citrate, 3-{(3R,4R)-4-methyl-3-[methyl-(7H-pyrrolo[2,3-d]pyrimidin-4-yl)-amino]-piperidin-1-yl}-3-oxo-propionitrile mono-citrate salt, reference compound], the Solubility in “physchem” (water) was approximately 2 mg/mL.

As to `C[C@@H]1CCN(C(=O)CC#N)C[C@@H]1N(C)c1ncnc2[nH]ccc12` [Tofacitinib hydrochloride (APO-B), tofacitinib hydrochloride], the Solubility in series [1] is 2294 mg/mL. On the same count and under the same terms, next, `C[C@@H]1CCN(C(=O)CC#N)C[C@@H]1N(C)c1ncnc2[nH]ccc12` [Tofacitinib hydrochloride (APO-E), tofacitinib hydrochloride]: 2235 mg/mL; `C[C@@H]1CCN(C(=O)CC#N)C[C@@H]1N(C)c1ncnc2[nH]ccc12` [Tofacitinib hydrochloride (APO-D), tofacitinib hydrochloride]: 2145 mg/mL.

`C[C@@H]1CCN(C(=O)CC#N)C[C@@H]1N(C)c1ncnc2[nH]ccc12` [Tofacitinib hydrochloride (APO-C), tofacitinib hydrochloride] yielded a Solubility in series [1] of 2235 mg/mL. In the series “physchem” (deionized water), `C[C@@H]1CCN(C(=O)CC#N)C[C@@H]1N(C)c1ncnc2[nH]ccc12` [Tofacitinib hydrochloride (APO-A), tofacitinib hydrochloride] yielded a Solubility of 2500 mg/mL. For `C[C@@H]1CCN(C(=O)CC#N)C[C@@H]1N(C)c1ncnc2[nH]ccc12` [Tofacitinib hydrochloride (APO-G), tofacitinib hydrochloride], the Solubility in series [1] was 2000 mg/mL.

The values are drawn from patent US9260438B2, “Solid forms of tofacitinib salts” (APOTEX INC., priority 2014, dated 2016).
